Source: the supplement of paper PMC10307832

Assays:
Assay in all cases: relative viability (nuclei count vs DMSO), 5 days (fraction); higher = more cells survive
IDH-C35 + Vorinostat = compound: Cc1ccccc1C(C(=O)NC1CCCCC1)N(C(=O)Cn1ccnc1C)c1cccc(F)c1 [IDH-C35] + O=C(CCCCCCC(=O)Nc1ccccc1)NO [Vorinostat] (partner 1 µM)
Summary of the method: (§1)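 Lung cancer cell lines in 1536-well plates got either a single drug or a fixed anchor-drug dose together with five library-drug doses (not always all listed) in √10 steps, by pin tool, on the day after seeding. Nuclei were counted after 5 days, and relative viability is the treated-to-vehicle ratio of nuclei counts. Values are medians of duplicate plates.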

[1] = compound: CC1=C(C(=NN1)C)CC2=C(C3=C(S2)N(C(=O)N(C3=O)C)CC(C)C)C(=O)N4C[C@@H](CO4)O + O=C(c1cc(Cc2n[nH]c(=O)c3ccccc23)ccc1F)N1CCN(C(=O)C2CC2)CC1 [Olaparib] (partner 8 µM)
Summary of the method: as §1

[2] = compound: CC1=C(C(=NN1)C)CC2=C(C3=C(S2)N(C(=O)N(C3=O)C)CC(C)C)C(=O)N4C[C@@H](CO4)O + Nc1nc2[nH]cc(CCc3ccc(C(=O)N[C@@H](CCC(=O)O)C(=O)O)cc3)c2c(=O)[nH]1 [Pemetrexed] (partner 0.2 µM)
Summary of the method: as §1

IDH-C35 + Pictilisib = compound: Cc1ccccc1C(C(=O)NC1CCCCC1)N(C(=O)Cn1ccnc1C)c1cccc(F)c1 [IDH-C35] + CS(=O)(=O)N1CCN(Cc2cc3nc(-c4cccc5[nH]ncc45)nc(N4CCOCC4)c3s2)CC1 [Pictilisib] (partner 1 µM)
Summary of the method: as §1

Cell Line	relative viability (IDH-C35 + Vorinostat; first compound 0.08 µM)	relative viability (IDH-C35 + Vorinostat; first compound 0.253 µM)	relative viability (IDH-C35 + Vorinostat; first compound 0.8 µM)	relative viability (IDH-C35 + Vorinostat; first compound 2.53 µM)	relative viability (IDH-C35 + Vorinostat; first compound 8 µM)	relative viability ([1]; first compound 0.0025 µM)	relative viability ([1]; first compound 0.007906 µM)	relative viability ([1]; first compound 0.025 µM)	relative viability ([1]; first compound 0.07906 µM)	relative viability ([1]; first compound 0.25 µM)	relative viability ([2]; first compound 0.0025 µM)	relative viability ([2]; first compound 0.007906 µM)	relative viability ([2]; first compound 0.025 µM)	relative viability ([2]; first compound 0.07906 µM)	relative viability ([2]; first compound 0.25 µM)	relative viability (IDH-C35 + Pictilisib; first compound 0.08 µM)	relative viability (IDH-C35 + Pictilisib; first compound 0.253 µM)	relative viability (IDH-C35 + Pictilisib; first compound 0.8 µM)	relative viability (IDH-C35 + Pictilisib; first compound 2.53 µM)	relative viability (IDH-C35 + Pictilisib; first compound 8 µM)
LU99A	0.533	0.422	0.483	0.481	0.505	0.224	0.262	0.246	0.193	0.229	0.18	0.175	0.159	0.211	0.179	0.337	0.299	0.326	0.317	0.361
LXF-289	0.768	0.787	0.86	0.62	0.799	1.06	1	1.07	1.03	1.25	0.88	0.811	0.751	0.922	0.975	0.813	0.767	0.689	0.85	0.725
NCI-H23	0.609	0.582	0.578	0.641	0.636	0.39	0.322	0.311	0.339	0.376	0.825	0.635	0.689	0.697	0.697	0.473	0.494	0.526	0.397	0.456
NCI-H322M	0.875	0.866	0.798	0.911	0.922	0.448	0.726	0.702	0.659	0.736	0.526	0.61	0.645	0.629	0.578	0.459	0.488	0.471	0.496	0.526
NCI-H358	0.709	0.659	0.686	0.614	0.611	0.596	0.557	0.625	0.605	0.684	0.172	0.185	0.159	0.157	0.181	0.408	0.33	0.317	0.366	0.385
NCI-H441	0.906	0.74	0.787	0.683	0.887	0.648	0.529	0.521	0.478	0.593	0.253	0.299	0.263	0.244	0.263	0.588	0.562	0.456	0.506	0.446
